{"source": "ChEMBL document CHEMBL3885881", "about": "“DrugMatrix”", "species_on_record": "Rattus norvegicus", "assay": "DrugMatrix - Regimen: Daily Repeat", "format": "toxicity, organism-based, Sprague-Dawley", "set-up": "regimen Daily Repeat, gender Male, age 6-8 weeks", "conditions": "in vivo, iv, 20 mg/kg, dose level Low, vehicle 100 % SALINE; for ABSOLUTE BASOPHIL / ABSOLUTE EOSINOPHIL / ABSOLUTE LYMPHOCYTE / ABSOLUTE MONOCYTE / ABSOLUTE SEGMENTED NEUTROPHIL / BASOPHIL / EOSINOPHIL / ERYTHROCYTE COUNT / HEMATOCRIT / HEMOGLOBIN / LEUKOCYTE COUNT / LYMPHOCYTE / MEAN CORPUSCULAR HEMOGLOBIN / MONOCYTE / NEUTROPHIL / NUCLEATED RED BLOOD CELLS / PLATELET COUNT: tissue Blood; for ALANINE AMINOTRANSFERASE / ALBUMIN / ALKALINE PHOSPHATASE / ASPARTATE AMINOTRANSFERASE / BLOOD UREA NITROGEN / CARBON DIOXIDE / CHLORIDE / CHOLESTEROL / CREATINE PHOSPHOKINASE / CREATININE / GLUCOSE / LACTATE DEHYDROGENASE / LIPASE / PHOSPHORUS / POTASSIUM / SODIUM / TOTAL BILIRUBIN / TOTAL PROTEIN / URIC ACID: tissue Plasma"}
{"molecule": "CCC[C@@H]1C[C@@H](C(=O)N[C@@H]([C@H]2O[C@H](SC)[C@H](O)[C@@H](O)[C@H]2O)[C@H](C)Cl)N(C)C1", "note": "[CLINDAMYCIN]", "values": [{"measurement": "ABSOLUTE BASOPHIL", "setting": "72 h, time 3 day", "result": 0, "unit": "CELLS/uL"}, {"measurement": "ABSOLUTE EOSINOPHIL", "setting": "72 h, time 3 day", "result": 40, "unit": "CELLS/uL"}, {"measurement": "ABSOLUTE LYMPHOCYTE", "setting": "72 h, time 3 day", "result": 9607.67, "unit": "CELLS/uL"}, {"measurement": "ABSOLUTE MONOCYTE", "setting": "72 h, time 3 day", "result": 40, "unit": "CELLS/uL"}, {"measurement": "ABSOLUTE SEGMENTED NEUTROPHIL", "setting": "72 h, time 3 day", "result": 712.33, "unit": "CELLS/uL"}, {"measurement": "BASOPHIL", "setting": "72 h, time 3 day", "result": 0, "unit": "%"}, {"measurement": "EOSINOPHIL", "setting": "72 h, time 3 day", "result": 0.33, "unit": "%"}, {"measurement": "ERYTHROCYTE COUNT", "setting": "72 h, time 3 day", "result": 5.49, "unit": "x10E6/uL"}, {"measurement": "HEMATOCRIT", "setting": "72 h, time 3 day", "result": 34.93, "unit": "%"}, {"measurement": "HEMOGLOBIN", "setting": "72 h, time 3 day", "result": 13.7, "unit": "G/DL"}, {"measurement": "LEUKOCYTE COUNT", "setting": "72 h, time 3 day", "result": 10.4, "unit": "x10E3/uL"}, {"measurement": "LYMPHOCYTE", "setting": "72 h, time 3 day", "result": 92.67, "unit": "%"}, {"measurement": "MEAN CORPUSCULAR HEMOGLOBIN", "setting": "72 h, time 3 day", "result": 24.97, "unit": "pg"}, {"measurement": "MONOCYTE", "setting": "72 h, time 3 day", "result": 0.33, "unit": "%"}, {"measurement": "NEUTROPHIL", "setting": "72 h, time 3 day", "result": 6.67, "unit": "%"}, {"measurement": "NUCLEATED RED BLOOD CELLS", "setting": "72 h, time 3 day", "result": "0 /100WBC"}, {"measurement": "PLATELET COUNT", "setting": "72 h, time 3 day", "result": 1194.33, "unit": "x10E3/uL"}, {"measurement": "ALANINE AMINOTRANSFERASE", "setting": "72 h, time 3 day", "result": 42, "unit": "u/L"}, {"measurement": "ALBUMIN", "setting": "72 h, time 3 day", "result": 4.4, "unit": "G/DL"}, {"measurement": "ALKALINE PHOSPHATASE", "setting": "72 h, time 3 day", "result": 375.67, "unit": "u/L"}, {"measurement": "ASPARTATE AMINOTRANSFERASE", "setting": "72 h, time 3 day", "result": 82.67, "unit": "u/L"}, {"measurement": "BLOOD UREA NITROGEN", "setting": "72 h, time 3 day", "result": 19, "unit": "mg/dL"}, {"measurement": "CARBON DIOXIDE", "setting": "72 h, time 3 day", "result": 35.33, "unit": "mmol/L"}, {"measurement": "CHLORIDE", "setting": "72 h, time 3 day", "result": 97, "unit": "MEQ/L"}, {"measurement": "CHOLESTEROL", "setting": "72 h, time 3 day", "result": 81.33, "unit": "mg/dL"}, {"measurement": "CREATINE PHOSPHOKINASE", "setting": "72 h, time 3 day", "result": 250, "unit": "u/L"}, {"measurement": "CREATININE", "setting": "72 h, time 3 day", "result": 0.19, "unit": "mg/dL"}, {"measurement": "GLUCOSE", "setting": "72 h, time 3 day", "result": 124.33, "unit": "mg/dL"}, {"measurement": "LACTATE DEHYDROGENASE", "setting": "72 h, time 3 day", "result": 260.67, "unit": "u/L"}, {"measurement": "LIPASE", "setting": "72 h, time 3 day", "result": 11, "unit": "u/L"}, {"measurement": "PHOSPHORUS", "setting": "72 h, time 3 day", "result": 9.63, "unit": "mg/dL"}, {"measurement": "POTASSIUM", "setting": "72 h, time 3 day", "result": 6.58, "unit": "MEQ/L"}, {"measurement": "SODIUM", "setting": "72 h, time 3 day", "result": 143.4, "unit": "MEQ/L"}, {"measurement": "TOTAL BILIRUBIN", "setting": "72 h, time 3 day", "result": 0.17, "unit": "mg/dL"}, {"measurement": "TOTAL PROTEIN", "setting": "72 h, time 3 day", "result": 6.4, "unit": "G/DL"}, {"measurement": "URIC ACID", "setting": "72 h, time 3 day", "result": 0.87, "unit": "mg/dL"}, {"measurement": "ABSOLUTE BASOPHIL", "setting": "120 h, time 5 day", "result": 0, "unit": "CELLS/uL"}, {"measurement": "ABSOLUTE EOSINOPHIL", "setting": "120 h, time 5 day", "result": 97.33, "unit": "CELLS/uL"}, {"measurement": "ABSOLUTE LYMPHOCYTE", "setting": "120 h, time 5 day", "result": 13386.67, "unit": "CELLS/uL"}, {"measurement": "ABSOLUTE MONOCYTE", "setting": "120 h, time 5 day", "result": 100.67, "unit": "CELLS/uL"}, {"measurement": "ABSOLUTE SEGMENTED NEUTROPHIL", "setting": "120 h, time 5 day", "result": 1348.67, "unit": "CELLS/uL"}, {"measurement": "BASOPHIL", "setting": "120 h, time 5 day", "result": 0, "unit": "%"}, {"measurement": "EOSINOPHIL", "setting": "120 h, time 5 day", "result": 0.67, "unit": "%"}, {"measurement": "ERYTHROCYTE COUNT", "setting": "120 h, time 5 day", "result": 5.84, "unit": "x10E6/uL"}, {"measurement": "HEMATOCRIT", "setting": "120 h, time 5 day", "result": 35.8, "unit": "%"}, {"measurement": "HEMOGLOBIN", "setting": "120 h, time 5 day", "result": 14.27, "unit": "G/DL"}, {"measurement": "LEUKOCYTE COUNT", "setting": "120 h, time 5 day", "result": 14.93, "unit": "x10E3/uL"}, {"measurement": "LYMPHOCYTE", "setting": "120 h, time 5 day", "result": 89.67, "unit": "%"}, {"measurement": "MEAN CORPUSCULAR HEMOGLOBIN", "setting": "120 h, time 5 day", "result": 24.47, "unit": "pg"}, {"measurement": "MONOCYTE", "setting": "120 h, time 5 day", "result": 0.67, "unit": "%"}, {"measurement": "NEUTROPHIL", "setting": "120 h, time 5 day", "result": 9, "unit": "%"}, {"measurement": "NUCLEATED RED BLOOD CELLS", "setting": "120 h, time 5 day", "result": "0 /100WBC"}, {"measurement": "PLATELET COUNT", "setting": "120 h, time 5 day", "result": 1266.67, "unit": "x10E3/uL"}, {"measurement": "ALANINE AMINOTRANSFERASE", "setting": "120 h, time 5 day", "result": 57.67, "unit": "u/L"}, {"measurement": "ALBUMIN", "setting": "120 h, time 5 day", "result": 4.33, "unit": "G/DL"}, {"measurement": "ALKALINE PHOSPHATASE", "setting": "120 h, time 5 day", "result": 400.67, "unit": "u/L"}, {"measurement": "ASPARTATE AMINOTRANSFERASE", "setting": "120 h, time 5 day", "result": 85, "unit": "u/L"}, {"measurement": "BLOOD UREA NITROGEN", "setting": "120 h, time 5 day", "result": 18.67, "unit": "mg/dL"}, {"measurement": "CARBON DIOXIDE", "setting": "120 h, time 5 day", "result": 35.33, "unit": "mmol/L"}, {"measurement": "CHLORIDE", "setting": "120 h, time 5 day", "result": 100.33, "unit": "MEQ/L"}, {"measurement": "CHOLESTEROL", "setting": "120 h, time 5 day", "result": 70.67, "unit": "mg/dL"}, {"measurement": "CREATINE PHOSPHOKINASE", "setting": "120 h, time 5 day", "result": 217, "unit": "u/L"}, {"measurement": "CREATININE", "setting": "120 h, time 5 day", "result": 0.19, "unit": "mg/dL"}, {"measurement": "GLUCOSE", "setting": "120 h, time 5 day", "result": 148.33, "unit": "mg/dL"}, {"measurement": "LACTATE DEHYDROGENASE", "setting": "120 h, time 5 day", "result": 152.67, "unit": "u/L"}, {"measurement": "LIPASE", "setting": "120 h, time 5 day", "result": 8.33, "unit": "u/L"}, {"measurement": "PHOSPHORUS", "setting": "120 h, time 5 day", "result": 12.6, "unit": "mg/dL"}, {"measurement": "POTASSIUM", "setting": "120 h, time 5 day", "result": 7.37, "unit": "MEQ/L"}, {"measurement": "SODIUM", "setting": "120 h, time 5 day", "result": 144.4, "unit": "MEQ/L"}, {"measurement": "TOTAL BILIRUBIN", "setting": "120 h, time 5 day", "result": 0.2, "unit": "mg/dL"}, {"measurement": "TOTAL PROTEIN", "setting": "120 h, time 5 day", "result": 6.43, "unit": "G/DL"}, {"measurement": "URIC ACID", "setting": "120 h, time 5 day", "result": 1.67, "unit": "mg/dL"}]}
